Experimental data taken from patent publication US20130157954A1, “METHODS FOR TREATMENT OR PROPHYLAXIS OF KIDNEY OR LIVER DYSFUNCTION” (NPS PHARMACEUTICALS, INC., priority 2010, published 2013).

Test: Example 1: liver biomarkers (total bilirubin, ALT, AST, ALP) in short bowel syndrome patients, every four weeks for 24 weeks; also sorted by >5% change from baseline
Type: in vivo, Human
Settings: for ALT (SGPT) change from baseline >5%, percent of patients / ALT (SGPT) change from baseline −5% <= and <=5%, number of patients / ALT (SGPT) change from baseline −5% <= and <=5%, percent of patients / AST (SGOT) change from baseline <−5%, number of patients / AST (SGOT) change from baseline <−5%, percent of patients / AST (SGOT) change from baseline >5%, number of patients / AST (SGOT) change from baseline >5%, percent of patients / AST (SGOT) change from baseline −5% <= and <=5%, number of patients / AST (SGOT) change from baseline −5% <= and <=5%, percent of patients / TOTAL BILIRUBIN change from baseline <−5%, number of patients / TOTAL BILIRUBIN change from baseline <−5%, percent of patients / TOTAL BILIRUBIN change from baseline >5%, number of patients / TOTAL BILIRUBIN change from baseline >5%, percent of patients / TOTAL BILIRUBIN change from baseline −5% <= and <=5%, number of patients / TOTAL BILIRUBIN change from baseline −5% <= and <=5%, percent of patients / ALKALINE PHOSPHATASE change from baseline <−5%, number of patients / ALKALINE PHOSPHATASE change from baseline <−5%, percent of patients / ALKALINE PHOSPHATASE change from baseline >5%, number of patients / ALKALINE PHOSPHATASE change from baseline >5%, percent of patients / ALKALINE PHOSPHATASE change from baseline −5% <= and <=5%, number of patients / ALKALINE PHOSPHATASE change from baseline −5% <= and <=5%, percent of patients / ALT (SGPT) change from baseline <−5%, number of patients / ALT (SGPT) change from baseline <−5%, percent of patients / ALT (SGPT) change from baseline >5%, number of patients: 0.1 mg/kg/day
Experimental: Human patients with short bowel syndrome were divided into three groups: a control group (16 total individuals) to receive placebo, an experimental group (35 total individuals) to receive teduglutide at 0.05 mg/kg/day throughout the study, and an experimental group (32 total individuals) to receive teduglutide at 0.1 mg/kg/day throughout the study. Patients were treated by subcutaneous injection of placebo or the appropriate dose of teduglutide. As individuals with short bowel syndrome are likely to experience associated liver and kidney disease, known biomarkers of liver and kidney function were monitored every four weeks, for 24 weeks. The liver biomarkers tested included total bilirubin, ALT and AST and ALP. The kidney biomarkers tested included urea nitrogen, creatinine and GFR. Before administration of placebo or teduglutide, diagnostic biomarker levels were tested to establish a baseline for each individual.
To visualize the effect of GLP-2 on the levels of the diagnostic biomarkers, the average change from baseline was calculated for the placebo and teduglutide treated groups for each visit after a baseline was established. The average change from baseline of each group is depicted in FIGS. 1-7. The numerical figures for each diagnostic biomarker at each time point are depicted in Table 1.
The efficacy of teduglutide in treating liver dysfunction was further tested by sorting the data into two groups: individuals with abnormal baseline values of liver diagnostic biomarkers; and individuals with normal baseline values of liver diagnostic biomarkers. The mean diagnostic biomarker change from baseline for these two groups is shown for ALT (FIGS. 5 and 6) and AST (FIGS. 7 and 8). […] These changes were significant when compared to baseline levels for the group, and when compared to placebo (see FIGS. 5 and 7).
The raw data for this sorting is reproduced in Table 2 below.

CC[C@H](C)[C@H](NC(=O)[C@H](Cc1ccccc1)NC(=O)[C@H](CC(=O)O)NC(=O)[C@H](CCCNC(=N)N)NC(=O)[C@H](C)NC(=O)[C@H](C)NC(=O)[C@H](CC(C)C)NC(=O)[C@H](CC(N)=O)NC(=O)[C@H](CC(=O)O)NC(=O)[C@H](CC(C)C)NC(=O)[C@@H](NC(=O)[C@@H](NC(=O)[C@H](CC(N)=O)NC(=O)[C@H](CCSC)NC(=O)[C@H](CCC(=O)O)NC(=O)[C@H](CC(=O)O)NC(=O)[C@H](CO)NC(=O)[C@H](Cc1ccccc1)NC(=O)[C@H](CO)NC(=O)CNC(=O)[C@H](CC(=O)O)NC(=O)CNC(=O)[C@@H](N)Cc1c[nH]cn1)[C@@H](C)O)[C@@H](C)CC)C(=O)N[C@@H](CC(N)=O)C(=O)N[C@@H](Cc1c[nH]c2ccccc12)C(=O)N[C@@H](CC(C)C)C(=O)N[C@H](C(=O)N[C@@H](CCC(N)=O)C(=O)N[C@H](C(=O)N[C@@H](CCCCN)C(=O)N[C@H](C(=O)N[C@H](C(=O)N[C@@H](CC(=O)O)C(=O)O)[C@@H](C)O)[C@@H](C)CC)[C@@H](C)O)[C@@H](C)CC [teduglutide]
ALT (SGPT) change from baseline >5%, percent of patients (week 12): (21.9%) | ALT (SGPT) change from baseline −5% <= and <=5%, number of patients (week 12): 2 | ALT (SGPT) change from baseline −5% <= and <=5%, percent of patients (week 12): (6.3%) | AST (SGOT) change from baseline <−5%, number of patients (week 12): 15 | AST (SGOT) change from baseline <−5%, percent of patients (week 12): (46.9%) | AST (SGOT) change from baseline >5%, number of patients (week 12): 10 | AST (SGOT) change from baseline >5%, percent of patients (week 12): (31.3%) | AST (SGOT) change from baseline −5% <= and <=5%, number of patients (week 12): 3 | AST (SGOT) change from baseline −5% <= and <=5%, percent of patients (week 12): (9.4%) | TOTAL BILIRUBIN change from baseline <−5%, number of patients (week 12): 14 | TOTAL BILIRUBIN change from baseline <−5%, percent of patients (week 12): (43.8%) | TOTAL BILIRUBIN change from baseline >5%, number of patients (week 12): 9 | TOTAL BILIRUBIN change from baseline >5%, percent of patients (week 12): (28.1%) | TOTAL BILIRUBIN change from baseline −5% <= and <=5%, number of patients (week 12): 6 | TOTAL BILIRUBIN change from baseline −5% <= and <=5%, percent of patients (week 12): (18.8%) | ALKALINE PHOSPHATASE change from baseline <−5%, number of patients (week 16): 21 | ALKALINE PHOSPHATASE change from baseline <−5%, percent of patients (week 16): (65.6%) | ALKALINE PHOSPHATASE change from baseline >5%, number of patients (week 16): 7 | ALKALINE PHOSPHATASE change from baseline >5%, percent of patients (week 16): (21.9%) | ALKALINE PHOSPHATASE change from baseline −5% <= and <=5%, number of patients (week 16): 2 | ALKALINE PHOSPHATASE change from baseline −5% <= and <=5%, percent of patients (week 16): (6.3%) | ALT (SGPT) change from baseline <−5%, number of patients (week 16): 19 | ALT (SGPT) change from baseline <−5%, percent of patients (week 16): (59.4%) | ALT (SGPT) change from baseline >5%, number of patients (week 16): 9 | ALT (SGPT) change from baseline >5%, percent of patients (week 16): (28.1%) | ALT (SGPT) change from baseline −5% <= and <=5%, number of patients (week 16): 2 | ALT (SGPT) change from baseline −5% <= and <=5%, percent of patients (week 16): (6.3%) | AST (SGOT) change from baseline <−5%, number of patients (week 16): 18 | AST (SGOT) change from baseline <−5%, percent of patients (week 16): (56.3%) | AST (SGOT) change from baseline >5%, number of patients (week 16): 8 | AST (SGOT) change from baseline >5%, percent of patients (week 16): (25.0%) | AST (SGOT) change from baseline −5% <= and <=5%, number of patients (week 16): 3 | AST (SGOT) change from baseline −5% <= and <=5%, percent of patients (week 16): (9.4%) | TOTAL BILIRUBIN change from baseline <−5%, number of patients (week 16): 14 | TOTAL BILIRUBIN change from baseline <−5%, percent of patients (week 16): (43.8%) | TOTAL BILIRUBIN change from baseline >5%, number of patients (week 16): 6 | TOTAL BILIRUBIN change from baseline >5%, percent of patients (week 16): (18.8%) | TOTAL BILIRUBIN change from baseline −5% <= and <=5%, number of patients (week 16): 8 | TOTAL BILIRUBIN change from baseline −5% <= and <=5%, percent of patients (week 16): (25.0%) | ALKALINE PHOSPHATASE change from baseline <−5%, number of patients (week 20): 19 | ALKALINE PHOSPHATASE change from baseline <−5%, percent of patients (week 20): (59.4%) | ALKALINE PHOSPHATASE change from baseline >5%, number of patients (week 20): 9 | ALKALINE PHOSPHATASE change from baseline >5%, percent of patients (week 20): (28.1%) | ALKALINE PHOSPHATASE change from baseline −5% <= and <=5%, number of patients (week 20): 1 | ALKALINE PHOSPHATASE change from baseline −5% <= and <=5%, percent of patients (week 20): (3.1%) | ALT (SGPT) change from baseline <−5%, number of patients (week 20): 19 | ALT (SGPT) change from baseline <−5%, percent of patients (week 20): (59.4%) | ALT (SGPT) change from baseline >5%, number of patients (week 20): 8 | ALT (SGPT) change from baseline >5%, percent of patients (week 20): (25.0%) | ALT (SGPT) change from baseline −5% <= and <=5%, number of patients (week 20): 2 | ALT (SGPT) change from baseline −5% <= and <=5%, percent of patients (week 20): (6.3%) | AST (SGOT) change from baseline <−5%, number of patients (week 20): 16 | AST (SGOT) change from baseline <−5%, percent of patients (week 20): (50.0%) | AST (SGOT) change from baseline >5%, number of patients (week 20): 9 | AST (SGOT) change from baseline >5%, percent of patients (week 20): (28.1%) | AST (SGOT) change from baseline −5% <= and <=5%, number of patients (week 20): 3 | AST (SGOT) change from baseline −5% <= and <=5%, percent of patients (week 20): (9.4%) | TOTAL BILIRUBIN change from baseline <−5%, number of patients (week 20): 14 | TOTAL BILIRUBIN change from baseline <−5%, percent of patients (week 20): (43.8%) | TOTAL BILIRUBIN change from baseline >5%, number of patients (week 20): 9 | TOTAL BILIRUBIN change from baseline >5%, percent of patients (week 20): (28.1%) | TOTAL BILIRUBIN change from baseline −5% <= and <=5%, number of patients (week 20): 6 | TOTAL BILIRUBIN change from baseline −5% <= and <=5%, percent of patients (week 20): (18.8%) | ALKALINE PHOSPHATASE change from baseline <−5%, number of patients (week 24): 20 | ALKALINE PHOSPHATASE change from baseline <−5%, percent of patients (week 24): (62.5%) | ALKALINE PHOSPHATASE change from baseline >5%, number of patients (week 24): 5 | ALKALINE PHOSPHATASE change from baseline >5%, percent of patients (week 24): (15.6%) | ALKALINE PHOSPHATASE change from baseline −5% <= and <=5%, number of patients (week 24): 4 | ALKALINE PHOSPHATASE change from baseline −5% <= and <=5%, percent of patients (week 24): (12.5%) | ALT (SGPT) change from baseline <−5%, number of patients (week 24): 18 | ALT (SGPT) change from baseline <−5%, percent of patients (week 24): (56.3%) | ALT (SGPT) change from baseline >5%, number of patients (week 24): 11 | ALT (SGPT) change from baseline >5%, percent of patients (week 24): (34.4%) | ALT (SGPT) change from baseline −5% <= and <=5%, number of patients (week 24): 0 | ALT (SGPT) change from baseline −5% <= and <=5%, percent of patients (week 24): (0.0%) | AST (SGOT) change from baseline <−5%, number of patients (week 24): 15 | AST (SGOT) change from baseline <−5%, percent of patients (week 24): (46.9%) | AST (SGOT) change from baseline >5%, number of patients (week 24): 11 | AST (SGOT) change from baseline >5%, percent of patients (week 24): (34.4%) | AST (SGOT) change from baseline −5% <= and <=5%, number of patients (week 24): 3 | AST (SGOT) change from baseline −5% <= and <=5%, percent of patients (week 24): (9.4%) | TOTAL BILIRUBIN change from baseline <−5%, number of patients (week 24): 11 | TOTAL BILIRUBIN change from baseline <−5%, percent of patients (week 24): (34.4%) | TOTAL BILIRUBIN change from baseline >5%, number of patients (week 24): 10 | TOTAL BILIRUBIN change from baseline >5%, percent of patients (week 24): (31.3%) | TOTAL BILIRUBIN change from baseline −5% <= and <=5%, number of patients (week 24): 6 | TOTAL BILIRUBIN change from baseline −5% <= and <=5%, percent of patients (week 24): (18.8%) | fraction of individuals with a decrease of more than 5% in ALT vs placebo (beginning at 4 weeks after the commencement of treatment): greater fraction of individuals experiencing a decrease of more than 5% | ALT and AST change from baseline in patients with abnormal baseline values (FIGS. 5 and 7) (compared to baseline and compared to placebo): statistically significant improvements | average level of ALP relative to baseline (FIG. 4) (groups receiving teduglutide): decreased relative to baseline for the entire period of the study | percent of individuals with an increase of greater than 5% in ALP or ALT vs placebo (groups receiving teduglutide): effective prophylactic against increases in biomarkers associated with liver dysfunction | individuals experiencing a decrease in ALP greater than 5% from baseline (groups receiving teduglutide, within 4 weeks of the beginning of treatment): roughly 60% | average decrease in level of ALT compared to baseline (FIG. 1) (groups receiving teduglutide, maintained for the entire duration of the study): about 10 U/L
